Data published in ChEMBL document CHEMBL3885861, “Open TG-GATES”.

Species on record: Rattus norvegicus
Assay: Open TG-GATES - Regimen: Daily Repeat
Assay type: toxicity, organism-based, Sprague-Dawley
Design: regimen Daily Repeat, gender Male, age 6 weeks
Conditions: in vivo, po, route gavage; for APTT / Bas / Eos / Fbg / Hb / Ht / Lym / MCH / MCHC / MCV / Mono / Neu / PT / Plat / RBC / Ret / WBC: tissue Blood; for KIDNEY_L / KIDNEY_R / KIDNEY_TOTAL: tissue Kidney; for LIVER: tissue Liver; for A/G / ALP / ALT / AST / BUN / CRE / Ca / Cl / DBIL / GLC / IP / K / LDH / Na / PL / RALB / TBIL / TC / TG / TP / gamma-GTP: tissue Plasma
[1] = 0 mg/kg, 72 h, dose level Control, time 3 day
[2] = 0 mg/kg, […], dose level Control, time 7 day
[3] = 0 mg/kg, […], dose level Control, time 14 day
[4] = 0 mg/kg, […], dose level Control, time 28 day
[5] = 10 mg/kg, 72 h, dose level Low, time 3 day
[6] = 10 mg/kg, […], dose level Low, time 7 day
[7] = 10 mg/kg, […], dose level Low, time 14 day
[8] = 10 mg/kg, […], dose level Low, time 28 day

OCCOCCN1CCN(C(c2ccccc2)c2ccc(Cl)cc2)CC1 (centres undefined) [HYDROXYZINE]
TERMINAL_BW [1]: 230.9 g
APTT [1]: 15.5 s
Bas [1]: 0%
Eos [1]: 1%
Fbg [1]: 263.6 mg/dL
Hb [1]: 12.9 g/dL
Ht [1]: 39%
Lym [1]: 74.6%
MCH [1]: 21.1 pg
MCHC [1]: 33.1%
MCV [1]: 63.9 fL
Mono [1]: 3.2%
Neu [1]: 20.6%
PT [1]: 15.7 s
Plat [1]: 117.4 x10_4/uL
RBC [1]: 610.4 x10_4/ul
Ret [1]: 7.5%
WBC [1]: 77.5 x10_2/uL
KIDNEY_L [1]: 1 g
KIDNEY_R [1]: 1 g
KIDNEY_TOTAL [1]: 1.9 g
LIVER [1]: 11.1 g
A/G [1]: 0.9
ALP [1]: 1652.8 IU/L
ALT [1]: 46.2 IU/L
AST [1]: 68.8 IU/L
BUN [1]: 16.2 mg/dL
CRE [1]: 0.2 mg/dL
Ca [1]: 10.9 mg/dL
Cl [1]: 105.8 meq/L
DBIL [1]: 0.012 mg/dL
GLC [1]: 186.8 mg/dL
IP [1]: 8.1 mg/dL
K [1]: 4 meq/L
LDH [1]: 91.8 IU/L
Na [1]: 143.2 meq/L
PL [1]: 148.4 mg/dL
RALB [1]: 2.7 g/dL
TBIL [1]: 0.052 mg/dL
TC [1]: 73 mg/dL
TG [1]: 90 mg/dL
TP [1]: 5.7 g/dL
gamma-GTP [1]: 0.8 IU/L
TERMINAL_BW [2]: 263.6 g
TERMINAL_BW [3]: 336.5 g
TERMINAL_BW [4]: 390.2 g
APTT [2]: 16.8 s
Bas [2]: 0%
Eos [2]: 1%
Fbg [2]: 282.2 mg/dL
Hb [2]: 13.6 g/dL
Ht [2]: 40.9%
Lym [2]: 79.2%
MCH [2]: 21.3 pg
MCHC [2]: 33.3%
MCV [2]: 63.9 fL
Mono [2]: 2.4%
Neu [2]: 16.4%
PT [2]: 15.4 s
Plat [2]: 113.3 x10_4/uL
RBC [2]: 639.4 x10_4/ul
Ret [2]: 6.1%
WBC [2]: 82.1 x10_2/uL
APTT [3]: 16.9 s
Bas [3]: 0%
Eos [3]: 1%
Fbg [3]: 292 mg/dL
Hb [3]: 14.1 g/dL
Ht [3]: 41.5%
Lym [3]: 75.4%
MCH [3]: 20.7 pg
MCHC [3]: 34%
MCV [3]: 60.9 fL
Mono [3]: 2.8%
Neu [3]: 20.2%
PT [3]: 15.5 s
Plat [3]: 116.6 x10_4/uL
RBC [3]: 682.2 x10_4/ul
Ret [3]: 4.8%
WBC [3]: 105.1 x10_2/uL
APTT [4]: 26.6 s
Bas [4]: 0.2%
Eos [4]: 1.2%
Fbg [4]: 295.8 mg/dL
Hb [4]: 15.1 g/dL
Ht [4]: 43.4%
Lym [4]: 79.6%
MCH [4]: 19.7 pg
MCHC [4]: 34.7%
MCV [4]: 56.7 fL
Mono [4]: 2%
Neu [4]: 16.4%
PT [4]: 15.9 s
Plat [4]: 105.6 x10_4/uL
RBC [4]: 766.4 x10_4/ul
Ret [4]: 2.4%
WBC [4]: 99.9 x10_2/uL
KIDNEY_L [2]: 1.1 g
KIDNEY_R [2]: 1.1 g
KIDNEY_TOTAL [2]: 2.3 g
KIDNEY_L [3]: 1.3 g
KIDNEY_R [3]: 1.3 g
KIDNEY_TOTAL [3]: 2.7 g
KIDNEY_L [4]: 1.4 g
KIDNEY_R [4]: 1.3 g
KIDNEY_TOTAL [4]: 2.8 g
LIVER [2]: 12.4 g
LIVER [3]: 15.4 g
LIVER [4]: 16.2 g
A/G [2]: 0.8
ALP [2]: 1624.6 IU/L
ALT [2]: 41.6 IU/L
AST [2]: 68.4 IU/L
BUN [2]: 16.6 mg/dL
CRE [2]: 0.2 mg/dL
Ca [2]: 11 mg/dL
Cl [2]: 105.2 meq/L
DBIL [2]: 0.016 mg/dL
GLC [2]: 193 mg/dL
IP [2]: 8 mg/dL
K [2]: 4 meq/L
LDH [2]: 68.4 IU/L
Na [2]: 143.2 meq/L
PL [2]: 166.6 mg/dL
RALB [2]: 2.7 g/dL
TBIL [2]: 0.054 mg/dL
TC [2]: 84 mg/dL
TG [2]: 103 mg/dL
TP [2]: 5.8 g/dL
gamma-GTP [2]: 0.8 IU/L
A/G [3]: 0.8
ALP [3]: 1450 IU/L
ALT [3]: 40.6 IU/L
AST [3]: 62.6 IU/L
BUN [3]: 16.2 mg/dL
CRE [3]: 0.2 mg/dL
Ca [3]: 10.6 mg/dL
Cl [3]: 103.8 meq/L
DBIL [3]: 0.02 mg/dL
GLC [3]: 190.2 mg/dL
IP [3]: 7.4 mg/dL
K [3]: 4 meq/L
LDH [3]: 94.6 IU/L
Na [3]: 141.8 meq/L
PL [3]: 151.2 mg/dL
RALB [3]: 2.7 g/dL
TBIL [3]: 0.056 mg/dL
TC [3]: 73 mg/dL
TG [3]: 126.4 mg/dL
TP [3]: 6.1 g/dL
gamma-GTP [3]: 0.6 IU/L
A/G [4]: 0.8
ALP [4]: 992.6 IU/L
ALT [4]: 36 IU/L
AST [4]: 61.2 IU/L
BUN [4]: 16.8 mg/dL
CRE [4]: 0.2 mg/dL
Ca [4]: 10.6 mg/dL
Cl [4]: 106 meq/L
DBIL [4]: 0.016 mg/dL
GLC [4]: 186.6 mg/dL
IP [4]: 6.6 mg/dL
K [4]: 4.1 meq/L
LDH [4]: 118.8 IU/L
Na [4]: 142.8 meq/L
PL [4]: 149.2 mg/dL
RALB [4]: 2.8 g/dL
TBIL [4]: 0.052 mg/dL
TC [4]: 68.2 mg/dL
TG [4]: 161.2 mg/dL
TP [4]: 6.3 g/dL
gamma-GTP [4]: 0.4 IU/L
TERMINAL_BW [5]: 228.1 g
APTT [5]: 16.3 s
Bas [5]: 0%
Eos [5]: 1%
Fbg [5]: 261.4 mg/dL
Hb [5]: 13 g/dL
Ht [5]: 39.4%
Lym [5]: 75.6%
MCH [5]: 21.8 pg
MCHC [5]: 33%
MCV [5]: 65.9 fL
Mono [5]: 2.6%
Neu [5]: 20.2%
PT [5]: 16 s
Plat [5]: 110.5 x10_4/uL
RBC [5]: 598 x10_4/ul
Ret [5]: 7.3%
WBC [5]: 96.2 x10_2/uL
KIDNEY_L [5]: 1 g
KIDNEY_R [5]: 1 g
KIDNEY_TOTAL [5]: 2 g
LIVER [5]: 10.8 g
A/G [5]: 0.8
ALP [5]: 1662 IU/L
ALT [5]: 51.2 IU/L
AST [5]: 82.4 IU/L
BUN [5]: 16.2 mg/dL
CRE [5]: 0.2 mg/dL
Ca [5]: 10.8 mg/dL
Cl [5]: 105.6 meq/L
DBIL [5]: 0.018 mg/dL
GLC [5]: 182 mg/dL
IP [5]: 7.7 mg/dL
K [5]: 4 meq/L
LDH [5]: 98.8 IU/L
Na [5]: 142.8 meq/L
PL [5]: 139 mg/dL
RALB [5]: 2.6 g/dL
TBIL [5]: 0.054 mg/dL
TC [5]: 71.6 mg/dL
TG [5]: 76 mg/dL
TP [5]: 5.6 g/dL
gamma-GTP [5]: 0.8 IU/L
TERMINAL_BW [6]: 259.3 g
TERMINAL_BW [7]: 323.3 g
TERMINAL_BW [8]: 416.4 g
APTT [6]: 17 s
Bas [6]: 0%
Eos [6]: 1%
Fbg [6]: 263 mg/dL
Hb [6]: 13.8 g/dL
Ht [6]: 41.3%
Lym [6]: 80.6%
MCH [6]: 21.5 pg
MCHC [6]: 33.5%
MCV [6]: 64.4 fL
Mono [6]: 1.8%
Neu [6]: 16.2%
PT [6]: 15.7 s
Plat [6]: 117.5 x10_4/uL
RBC [6]: 643 x10_4/ul
Ret [6]: 5.9%
WBC [6]: 88.4 x10_2/uL
APTT [7]: 18.1 s
Bas [7]: 0%
Eos [7]: 0.8%
Fbg [7]: 266.4 mg/dL
Hb [7]: 14.2 g/dL
Ht [7]: 41.7%
Lym [7]: 81.2%
MCH [7]: 20.7 pg
MCHC [7]: 34%
MCV [7]: 60.9 fL
Mono [7]: 2.4%
Neu [7]: 15%
PT [7]: 15.7 s
Plat [7]: 111 x10_4/uL
RBC [7]: 685.8 x10_4/ul
Ret [7]: 4.3%
WBC [7]: 106.7 x10_2/uL
APTT [8]: 18.3 s
Bas [8]: 0%
Eos [8]: 1%
Fbg [8]: 297.2 mg/dL
Hb [8]: 15.4 g/dL
Ht [8]: 43.7%
Lym [8]: 80.4%
MCH [8]: 20.6 pg
MCHC [8]: 35.2%
MCV [8]: 58.4 fL
Mono [8]: 2%
Neu [8]: 15%
PT [8]: 15.9 s
Plat [8]: 90.9 x10_4/uL
RBC [8]: 748.8 x10_4/ul
Ret [8]: 2.6%
WBC [8]: 105.9 x10_2/uL
KIDNEY_L [6]: 1.1 g
KIDNEY_R [6]: 1.1 g
KIDNEY_TOTAL [6]: 2.1 g
KIDNEY_L [7]: 1.3 g
KIDNEY_R [7]: 1.3 g
KIDNEY_TOTAL [7]: 2.7 g
KIDNEY_L [8]: 1.4 g
KIDNEY_R [8]: 1.4 g
KIDNEY_TOTAL [8]: 2.8 g
LIVER [6]: 12.6 g
LIVER [7]: 14.7 g
LIVER [8]: 16.8 g
A/G [6]: 0.9
ALP [6]: 1602.2 IU/L
ALT [6]: 41 IU/L
AST [6]: 65.8 IU/L
BUN [6]: 17.4 mg/dL
CRE [6]: 0.2 mg/dL
Ca [6]: 11.1 mg/dL
Cl [6]: 106 meq/L
DBIL [6]: 0.018 mg/dL
GLC [6]: 189 mg/dL
IP [6]: 7.2 mg/dL
K [6]: 4.3 meq/L
LDH [6]: 66.2 IU/L
Na [6]: 142.6 meq/L
PL [6]: 158.2 mg/dL
RALB [6]: 2.7 g/dL
TBIL [6]: 0.052 mg/dL
TC [6]: 72.6 mg/dL
TG [6]: 118.4 mg/dL
TP [6]: 5.9 g/dL
gamma-GTP [6]: 0.8 IU/L
A/G [7]: 0.8
ALP [7]: 1484.2 IU/L
ALT [7]: 40.8 IU/L
AST [7]: 67.2 IU/L
BUN [7]: 15.4 mg/dL
CRE [7]: 0.2 mg/dL
Ca [7]: 10.6 mg/dL
Cl [7]: 103.6 meq/L
DBIL [7]: 0.016 mg/dL
GLC [7]: 184.6 mg/dL
IP [7]: 7.3 mg/dL
K [7]: 4 meq/L
LDH [7]: 86.2 IU/L
Na [7]: 141.6 meq/L
PL [7]: 163 mg/dL
RALB [7]: 2.7 g/dL
TBIL [7]: 0.052 mg/dL
TC [7]: 74.8 mg/dL
TG [7]: 142.4 mg/dL
TP [7]: 6 g/dL
gamma-GTP [7]: 0.6 IU/L
A/G [8]: 0.8
ALP [8]: 1346.6 IU/L
ALT [8]: 41.4 IU/L
AST [8]: 69.6 IU/L
BUN [8]: 17.4 mg/dL
CRE [8]: 0.2 mg/dL
Ca [8]: 10.6 mg/dL
Cl [8]: 105 meq/L
DBIL [8]: 0.012 mg/dL
GLC [8]: 196.8 mg/dL
IP [8]: 6.8 mg/dL
K [8]: 4 meq/L
LDH [8]: 100.8 IU/L
Na [8]: 142.6 meq/L
PL [8]: 154.8 mg/dL
RALB [8]: 2.8 g/dL
TBIL [8]: 0.05 mg/dL
TC [8]: 76.8 mg/dL
TG [8]: 113.4 mg/dL
TP [8]: 6.3 g/dL
gamma-GTP [8]: 0.8 IU/L
